Experimental findings from patent US20220305001A1, “METHODS OF TREATING ACUTE MYELOID LEUKEMIA WITH FARNESYLTRANSFERASE INHIBITORS” (Kura Oncology, Inc., priority 2019, published 2022) are described below.

Assay [1] relates to AML. In words: Tipifarnib treatment of previously untreated elderly or unfit AML patients, survival analysed by mRNA expression of FLT3LG/CXCR4. The assay is classed as in vivo, human. The procedure:
(§1) Previous clinical studies with tipifarnib were performed in newly diagnosed AML in elderly patients with poor risk AML or relapsed and refractory AML. In these studies, patient selection was not based on genetic markers. Anecdotal evidence of tipifarnib single agent activity was reported.

In assay [2] the test system is AML. In words: Tipifarnib treatment of relapsed or refractory AML patients, survival analysed by mRNA expression of FLT3LG/CXCR4. The assay is classed as in vivo, human. The method, then: as §1
[3] abbreviates: highest FLT3LG expression tertile.
[4] abbreviates: second FLT3LG expression tertile.
Where [5] appears, read: third tertile (lowest level of FLT3LG expression).
Setting [6] is: first three quartiles of FLT3LG expression.
The mark [7] stands for this setting: highest FLT3LG tertile and highest CXCR4 tertile (N=10).
The mark [8] stands for this setting: highest quintile of FLT3LG expression.
Where [9] appears, read: rest of patients with either lower FLT3LG or lower CXCR4 expression (N=47).

As to `Cn1cncc1[C@@](N)(c1ccc(Cl)cc1)c1ccc2c(c1)c(-c1cccc(Cl)c1)cc(=O)n2C` [tipifarnib], the “median overall survival (mOS)” value with AML [1] (setting [3]) is 548 days; with AML [1] (setting [4]) it was 153 days; with AML [1] (setting [5]) it was 76 days; with AML [2] (setting [6]), 54 to 83 days; in the assay on AML [2] (setting [7]), 234 days; in the assay on AML [2] (setting [8]) it was 234 days. Also, the “median overall survival (mOS)” value in the assay with AML [2] (setting [9]) was found to be 84 days. Moreover, the “median progression free survival (mPFS)” value was 247 days in the assay on AML [1] (setting [3]); 64 days in the assay with AML [1] (setting [4]); 35 days in the assay on AML [1] (setting [5]); 28 to 29 days in the assay on AML [2] (setting [6]); 148 days in the assay on AML [2] (setting [7]); 119 days in the assay with AML [2] (setting [8]). In addition, the “median progression free survival (mPFS)” value in the assay on AML [2] (setting [9]) was 29 days.
